Our source for the IC50 and inhibition values is patent publication US20190185479A1, “BICYCLIC NITROGENATED HETEROCYCLIC COMPOUND” (MITSUBISHI TANABE PHARMA CORPORATION, priority 2016, published 2019).

SMILES strings stand for the structures.

What all share (type): biochemical
The target of one assay is T1, hPDE8B (Homo sapiens, UniProt O95263).
T1 construct: purchased SB Drug Discovery
As to the kind of experiment: PDE8 inhibition assay (IC50), Experimental Example 3. The following applies: for IC50: hPDE8B, read-out: PDE inhibition assay IC50, PDE8. The gist of the method:
(§1)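 Recombinant human enzymes incubated with compound and 3 nmol/L cAMP (final) in Tris-HCl pH 7.5 buffer with MgCl2, BSA, DTT, 2% DMSO final, 60 min at room temperature. Residual cAMP measured by TR-FRET (LANCE Ultra), reaction stopped with 0.5 mmol/L IBMX. IC50 from inhibition relative to no-compound (0%) and no-enzyme (100%) controls.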

The next assay concerns the target hPDE10A (Homo sapiens, UniProt Q9Y233). As to the kind of experiment: PDE10 inhibition assay (IC50), Experimental Example 3. As to conditions: hPDE10A; read-out: PDE inhibition assay IC50, PDE10. In a few lines:
as §1

Another assay deals with T2, hPDE4D (Homo sapiens, UniProt Q08499).
T2 construct: purchased SB Drug Discovery
T2 sequence (Q08499 whole entry): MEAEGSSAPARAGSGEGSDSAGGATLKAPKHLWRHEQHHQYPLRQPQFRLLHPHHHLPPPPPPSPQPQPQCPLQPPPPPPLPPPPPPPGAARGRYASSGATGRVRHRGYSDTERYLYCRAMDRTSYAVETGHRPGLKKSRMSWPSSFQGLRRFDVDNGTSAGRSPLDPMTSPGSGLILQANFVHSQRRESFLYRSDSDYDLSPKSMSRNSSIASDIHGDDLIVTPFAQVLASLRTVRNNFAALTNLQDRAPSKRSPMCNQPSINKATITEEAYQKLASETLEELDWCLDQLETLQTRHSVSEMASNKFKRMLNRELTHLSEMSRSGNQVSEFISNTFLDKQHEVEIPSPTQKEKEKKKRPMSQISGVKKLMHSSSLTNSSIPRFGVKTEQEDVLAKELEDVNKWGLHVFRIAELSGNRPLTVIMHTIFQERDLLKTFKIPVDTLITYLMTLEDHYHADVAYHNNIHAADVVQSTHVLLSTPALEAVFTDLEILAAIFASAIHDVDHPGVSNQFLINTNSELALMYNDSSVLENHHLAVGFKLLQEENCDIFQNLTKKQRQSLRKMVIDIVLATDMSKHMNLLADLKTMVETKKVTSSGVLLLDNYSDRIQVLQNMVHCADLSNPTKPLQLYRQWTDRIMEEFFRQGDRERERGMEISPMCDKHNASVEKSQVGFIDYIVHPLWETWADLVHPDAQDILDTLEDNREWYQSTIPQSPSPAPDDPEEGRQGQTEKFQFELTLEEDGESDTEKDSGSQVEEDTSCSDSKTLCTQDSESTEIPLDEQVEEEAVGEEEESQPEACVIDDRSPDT
As to the kind of experiment: PDE4 inhibition assay (IC50), Experimental Example 3. As to conditions: hPDE4D; read-out: PDE inhibition assay IC50, PDE4. The gist of the method: as §1

In a further assay the target is T3, Human PDE7B (hPDE7B) (Homo sapiens, UniProt Q9NP56).
T3 construct: made in house; host or cells: COS-7 cells
T3 sequence (Q9NP56 whole entry): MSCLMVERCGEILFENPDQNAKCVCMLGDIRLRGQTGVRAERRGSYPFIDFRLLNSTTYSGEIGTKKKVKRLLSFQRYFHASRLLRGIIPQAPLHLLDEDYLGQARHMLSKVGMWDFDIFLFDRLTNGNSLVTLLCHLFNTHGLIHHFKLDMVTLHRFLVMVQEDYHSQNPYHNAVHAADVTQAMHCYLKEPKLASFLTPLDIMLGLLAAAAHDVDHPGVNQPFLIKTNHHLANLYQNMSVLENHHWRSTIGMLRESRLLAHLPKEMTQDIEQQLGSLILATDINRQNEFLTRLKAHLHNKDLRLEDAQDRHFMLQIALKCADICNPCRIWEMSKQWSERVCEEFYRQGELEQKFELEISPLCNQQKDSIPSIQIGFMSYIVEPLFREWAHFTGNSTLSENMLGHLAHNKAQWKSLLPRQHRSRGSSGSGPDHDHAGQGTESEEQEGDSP
As to the kind of experiment: Measurement of PDE7 inhibitory activity (Experimental Example 1; residual cAMP, LANCE Ultra cAMP TR-FRET). As to conditions: cAMP 3 nmol/L, room temperature 60 minutes. The gist of the method:
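hPDE7B from transfected COS-7 cells reacted with 3 nmol/L cAMP (final) and compound (2% DMSO) in 50 mmol/L Tris-HCl pH 7.5, 1 mmol/L MgCl2, 0.1% BSA, 0.5 mmol/L DTT, 60 min at room temperature. Reaction stopped with IBMX; residual cAMP measured by TR-FRET. Inhibition scaled between no-compound and no-enzyme controls.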

T1 sequence (O95263 whole entry): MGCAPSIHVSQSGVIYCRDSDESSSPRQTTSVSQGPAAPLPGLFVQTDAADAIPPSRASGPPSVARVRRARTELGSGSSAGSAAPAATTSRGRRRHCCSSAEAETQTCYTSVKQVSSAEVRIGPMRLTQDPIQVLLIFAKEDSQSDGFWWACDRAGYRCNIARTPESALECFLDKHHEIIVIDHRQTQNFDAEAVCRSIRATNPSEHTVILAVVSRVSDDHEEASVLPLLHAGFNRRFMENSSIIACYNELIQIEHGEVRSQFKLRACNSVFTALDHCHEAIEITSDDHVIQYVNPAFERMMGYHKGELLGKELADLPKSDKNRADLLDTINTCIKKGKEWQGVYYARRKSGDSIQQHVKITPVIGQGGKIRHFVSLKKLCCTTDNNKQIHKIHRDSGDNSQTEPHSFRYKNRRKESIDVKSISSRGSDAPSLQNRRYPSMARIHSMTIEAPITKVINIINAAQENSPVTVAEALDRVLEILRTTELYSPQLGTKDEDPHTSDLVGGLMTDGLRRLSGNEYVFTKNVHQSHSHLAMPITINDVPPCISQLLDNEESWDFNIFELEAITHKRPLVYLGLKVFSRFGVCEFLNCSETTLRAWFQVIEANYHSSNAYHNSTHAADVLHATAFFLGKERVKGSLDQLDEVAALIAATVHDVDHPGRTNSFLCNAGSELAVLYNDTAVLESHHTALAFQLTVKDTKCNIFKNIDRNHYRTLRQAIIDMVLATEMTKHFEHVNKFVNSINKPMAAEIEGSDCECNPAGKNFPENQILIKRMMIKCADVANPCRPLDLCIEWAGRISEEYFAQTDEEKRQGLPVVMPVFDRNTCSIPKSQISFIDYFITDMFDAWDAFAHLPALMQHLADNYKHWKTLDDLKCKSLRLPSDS
hPDE10A, sequence (Q9Y233 290-1055 limits assumed): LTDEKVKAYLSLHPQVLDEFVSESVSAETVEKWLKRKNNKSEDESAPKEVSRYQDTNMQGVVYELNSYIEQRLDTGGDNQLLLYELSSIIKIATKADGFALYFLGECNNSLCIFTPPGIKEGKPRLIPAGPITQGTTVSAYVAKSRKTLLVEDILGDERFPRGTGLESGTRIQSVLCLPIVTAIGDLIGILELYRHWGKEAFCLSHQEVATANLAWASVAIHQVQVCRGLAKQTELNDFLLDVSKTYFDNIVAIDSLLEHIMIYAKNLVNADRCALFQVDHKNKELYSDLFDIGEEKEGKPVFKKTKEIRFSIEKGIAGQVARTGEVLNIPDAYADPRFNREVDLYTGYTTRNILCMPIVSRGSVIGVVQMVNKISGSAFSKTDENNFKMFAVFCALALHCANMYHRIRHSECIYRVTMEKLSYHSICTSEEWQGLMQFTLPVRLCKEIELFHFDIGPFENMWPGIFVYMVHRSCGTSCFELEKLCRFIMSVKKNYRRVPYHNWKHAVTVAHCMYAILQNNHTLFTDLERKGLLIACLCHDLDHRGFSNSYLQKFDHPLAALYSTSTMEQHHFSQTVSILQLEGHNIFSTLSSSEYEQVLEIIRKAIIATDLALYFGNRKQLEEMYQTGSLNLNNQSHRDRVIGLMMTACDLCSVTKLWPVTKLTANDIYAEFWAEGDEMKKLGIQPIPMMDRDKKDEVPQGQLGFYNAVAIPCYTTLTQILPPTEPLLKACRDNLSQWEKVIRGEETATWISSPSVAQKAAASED

As a reminder, the IC50 is the concentration that gives 50% inhibition. In the case of `Nc1nccn2c([C@H]3CCCC(F)(F)C3)nnc12` [Example 212, 3-[(1S)-3,3-difluorocyclohexyl][1,2,4]triazolo[4,3-a]pyrazin-8-amine], the IC50 at hPDE8B amounted to 6.07 µM; at hPDE10A, 15.6 µM; at hPDE4D, 15.9 µM; against Human PDE7B (hPDE7B) it was 0.04 µM.
For `CC1(C)CCCN(c2nnc3c(N)ncc(Cl)n23)C1` [Example 248, 5-chloro-3-(3,3-dimethylpiperidin-1-yl) [1,2,4]triazolo[4,3-a]pyrazin-8-amine], in that order: 1.51 µM, 5.57 µM, 1.88 µM and under 0.01 µM.
Consider `CC1(C)CCCN(c2nnc3c(N)ncc(C(F)(F)F)n23)C1` [Example 252, 3-(3,3-dimethylpiperidin-1-yl)-5-(trifluoromethyl) [1,2,4]triazolo[4,3-a]pyrazin-8-amine], for which the inhibition at 1 µM on hPDE8B (at 1 μmol/L, read-out: inhibition rate (%) at prescribed concentration, PDE8) stood at 53%. Moreover, the figures for the IC50 at hPDE10A, at hPDE4D and on Human PDE7B (hPDE7B) were 7.4 µM, 1.8 µM and under 0.01 µM, respectively.
